“Also recorded” adds a separate entry of the source.
Assay: Hepatic biotransformation of infused bile acid (negative ion FAB-MS, conjugate separation)
Assay type: in vivo, Sprague-Dawley rats
Conditions: i.v. infusion
Protocol: Adult male Sprague-Dawley rats (body weight 200-230 g) were anesthetized by an intraperitoneal injection of pentobarbital (Nembutal, 7.5 mg/100 g body weight), and maintained under sedation by additional doses. The right jugular vein and the common bile duct were cannulated using PE-50 polyethylene tubing (Clay-Adams, Parsippany, N.J.). Body temperature was maintained throughout the experiment at 37° C. using a rectal probe and a thermostatically controlled heating pad (Harvard Apparatus Co., Inc., Millis, Mass.). Saline was infused at a rate of 1.0 ml/h using a Harvard pump (Harvard Apparatus Co., Inc.) into the jugular vein for a control period of 2h. After collecting two 10 minute bile samples for base-line analysis, the bile acids were individually infused intravenously (i.v.) for 30 minutes in stepwise increasing doses (0.5, 1.0, and 2.0 μmol/min/100 g body weight). Bile acid solutions were prepared in 3% human albumin in 0.45% saline. Six animals were used for each experiment and bile was collected every 10 minutes into preweighed tubes. At the end of the experiment, blood was obtained by cardiac puncture, and urine was obtained by aspiration of the bladder. All biological specimens were stored at -20° C. This animal study protocol (#1 B 10044) was approved by the Bioethics committee of the Children's Hospital Medical Center (Cincinnati, Ohio).
Negative ion fast atom bombardment-mass spectrometry (FAB-MS) spectra of bile samples, urine and synthetic compounds were obtained after placing the equivalent of approximately 1 μl of the original bile extract, 10 μl-50 μl of the urine extract and jig quantities of synthetic bile acids dissolved in methanol onto a small drop of a glycerol matrix spotted on a copper target of the FAB probe. This probe was introduced directly into the ion source of the mass spectrometer and a beam of fast atoms of either xenon generated with a saddle field atom gun (ion Tech, Teddington, Middlesex, UK) operated at 8 kV and 20 μA, or cesium generated from cesium iodine (35 kV), was fired at the target containing the sample. Negative ion spectra were obtained over the mass range of 50-1000 Da/e.
For the determination of hepatic biotransformation of the infused bile acid, bile collections from the six animal were pooled and biliary bile acids were determined by GC-MS after extraction, solvolysis, hydrolysis, and derivatization. Quantification of bile acids was achieved using GC, by comparing the peak height response of the individual bile acid with the peak height response obtained from the internal standard, nordeoxycholic acid added to the initial sample of bile. Identification of a bile acid was made on the basis of the retention index relative to a homologous series of n-alkanes, referred to as the methylene unit value (MU) and the fragmentation pattern of the mass spectrum was compared with authentic standards. A list of over 100 mass spectra of authentic bile acid standards and retention indices was recently compiled as a reference source (Lawson, A. M., et al, Mass spectrometry of bile acids, The Bile Acids, Vol. 4, Methods and Applications, pp. 167-267 (1988)).
In the case of the animals infused with UDCA-3S, bile was collected during the final period of bile acid infusion ([…]). Bile acids were solvolyzed and separated into groups based on their mode of conjugation using the lipophilic anion exchange gel, diethylaminohydroxypropyl Sephadex LH-20; Packard Instruments, Groningen, The Netherlands). Bile acid composition was determined in each fraction by GC-MS after hydrolysis and preparation of the Me-TMS ethers.

SMILES | Hepatic biotransformation / form secreted in bile (in words) | Hepatic biotransformation / form secreted in bile (in words) (listed as C-3 sulfate of UDCA) | Hepatic biotransformation / form secreted in bile (in words) (listed as UDCA-7-sulfate) | Hepatic biotransformation / form secreted in bile (in words) (listed as UDCA-disulfate)
C[C@H](CCC(=O)O)[C@H]1CC[C@H]2[C@@H]3[C@@H](O)C[C@@H]4C[C@H](O)CC[C@]4(C)[C@H]3CC[C@]12C [UDCA, 3 alpha, 7 beta-dihydroxy-5 beta-cholan-24oic acid, reference compound] | almost exclusively conjugated with taurine and glycine; also recorded: mainly conjugated with taurine, and to a lesser extent was converted to glycine, sulfate and flucuronide conjugates | – | – | –
C[C@H](CCC(=O)O)[C@H]1CC[C@H]2[C@@H]3[C@@H](O)C[C@@H]4C[C@H](OS(=O)(=O)O)CC[C@]4(C)[C@H]3CC[C@]12C [UDCA-3S, ursodeoxycholic acid 3-sulfate] | – | secreted into bile to a limited extent unchanged, but also underwent appreciable amidation with taurine and glycine and further hydroxylation | – | –
C[C@H](CCC(=O)O)[C@H]1CC[C@H]2[C@@H]3[C@@H](OS(=O)(=O)O)C[C@@H]4C[C@H](O)CC[C@]4(C)[C@H]3CC[C@]12C [UDCA-7S, ursodeoxycholic acid 7-sulfate] | No other significant ions were present to indicate further metabolic transformation; also recorded: not amidated with taurine or glycine | – | secreted into bile unchanged | –
C[C@H](CCC(=O)O)[C@H]1CC[C@H]2[C@@H]3[C@@H](OS(=O)(=O)O)C[C@@H]4C[C@H](OS(=O)(=O)O)CC[C@]4(C)[C@H]3CC[C@]12C [UDCA-DS, ursodeoxycholic acid 3,7-disulfate] | No other ions were present to suggest further metabolic transformation; also recorded: not amidated with taurine or glycine | – | – | secreted into bile unchanged

— patent US5763435A, “Sulfate conjugates of ursodeoxycholic acid, and their beneficial use in inflammatory disorders” (priority 1995, dated 1998)
